# Reference: ChEMBL document CHEMBL5356939, “Research progress of anticancer drugs targeting CDK12” (RSC Med Chem, 2023)
# Columns and labels:
# [1] = biological target: T1, Cyclin-dependent kinase 9 (Homo sapiens, UniProt P50750); experiment: Inhibition of recombinant human CDK9 expressed in baculovirus infected Insect cell measured after 30 mins by scintillation counter analysis
# [2] = biological target: T2, Protein cereblon/Cyclin-dependent kinase 12 (Homo sapiens, UniProt Q96SW2+Q9NYV4); experiment: Protac activity at CRBN/CDK12 in human MOLT-4 cells assessed as […] by Westernblot analysis; format: cell-based
# [3] = biological target: T3, Cyclin-dependent kinase 7 (Homo sapiens, UniProt P50613); experiment: Inhibition of full length recombinant human CDK7 expressed in Insect cell in presence of ATP
# [4] = biological target: T4, Cyclin-dependent kinase 12 (Homo sapiens, UniProt Q9NYV4); experiment: Inhibition of GST-tagged recombinant human CDK12 (696 to 1082 residues) expressed in Insect cell in presence of ATP by Km ATP assay
# [5] = biological target: Cyclin-dependent kinase 1 (Homo sapiens, UniProt P06493); experiment: Inhibition of full length recombinant human CDK1 expressed in Insect cell in presence of ATP
# [6] = biological target: T1, Cyclin-dependent kinase 9
# Description: Binding affinity to CDK9 (unknown origin) assessed as dissociation constant
# [7] = biological target: Cyclin-dependent kinase 6 (Homo sapiens, UniProt Q00534)
# Description: Binding affinity to CDK6 (unknown origin) assessed as dissociation constant
# [8] = Antiproliferative activity against human Neuroblastoma cell assessed as […] measured after 72 hrs; format: functional, cell-based
# Lung cancer cell line = experiment: Antiproliferative activity against human Lung cancer cell line assessed as […] measured after 72 hrs; format: functional, cell-based
# [9] = biological target: Cyclin-dependent kinase 2 (Homo sapiens, UniProt P24941); experiment: Inhibition of full length recombinant human CDK2 expressed in Insect cell in presence of ATP
# [10] = biological target: T1, Cyclin-dependent kinase 9; experiment: Inhibition of full length recombinant human CDK9 expressed in Insect cell in presence of ATP
# [11] = biological target: T4, Cyclin-dependent kinase 12; experiment: Inhibition of GST-tagged recombinant human CDK12 (696 to 1082 residues) expressed in Insect cell in presence of ATP by high ATP assay
# [12] = biological target: T2, Protein cereblon/Cyclin-dependent kinase 12; experiment: Protac activity at CRBN/CDK12 in human Jurkat cells assessed as […] measured after 6 hrs by Westernblot analysis; format: cell-based
# [13] = biological target: Cyclin-dependent kinase 12 (Mus musculus, UniProt Q14AX6); experiment: Inhibition of CDK12 in mouse OV2944-HM-1 cells by Westernblot analysis; format: cell-based
# [14] = biological target: Cyclin-dependent kinase 13 (Homo sapiens, UniProt Q14004); experiment: Inhibition of CDK13 (unknown origin)
# [15] = biological target: T3, Cyclin-dependent kinase 7; experiment: Inhibition of CDK7 (unknown origin)
# [16] = biological target: T4, Cyclin-dependent kinase 12; experiment: Inhibition of CDK12 (unknown origin)
# T4 sequence (Q9NYV4 whole entry, the tested form may be a part): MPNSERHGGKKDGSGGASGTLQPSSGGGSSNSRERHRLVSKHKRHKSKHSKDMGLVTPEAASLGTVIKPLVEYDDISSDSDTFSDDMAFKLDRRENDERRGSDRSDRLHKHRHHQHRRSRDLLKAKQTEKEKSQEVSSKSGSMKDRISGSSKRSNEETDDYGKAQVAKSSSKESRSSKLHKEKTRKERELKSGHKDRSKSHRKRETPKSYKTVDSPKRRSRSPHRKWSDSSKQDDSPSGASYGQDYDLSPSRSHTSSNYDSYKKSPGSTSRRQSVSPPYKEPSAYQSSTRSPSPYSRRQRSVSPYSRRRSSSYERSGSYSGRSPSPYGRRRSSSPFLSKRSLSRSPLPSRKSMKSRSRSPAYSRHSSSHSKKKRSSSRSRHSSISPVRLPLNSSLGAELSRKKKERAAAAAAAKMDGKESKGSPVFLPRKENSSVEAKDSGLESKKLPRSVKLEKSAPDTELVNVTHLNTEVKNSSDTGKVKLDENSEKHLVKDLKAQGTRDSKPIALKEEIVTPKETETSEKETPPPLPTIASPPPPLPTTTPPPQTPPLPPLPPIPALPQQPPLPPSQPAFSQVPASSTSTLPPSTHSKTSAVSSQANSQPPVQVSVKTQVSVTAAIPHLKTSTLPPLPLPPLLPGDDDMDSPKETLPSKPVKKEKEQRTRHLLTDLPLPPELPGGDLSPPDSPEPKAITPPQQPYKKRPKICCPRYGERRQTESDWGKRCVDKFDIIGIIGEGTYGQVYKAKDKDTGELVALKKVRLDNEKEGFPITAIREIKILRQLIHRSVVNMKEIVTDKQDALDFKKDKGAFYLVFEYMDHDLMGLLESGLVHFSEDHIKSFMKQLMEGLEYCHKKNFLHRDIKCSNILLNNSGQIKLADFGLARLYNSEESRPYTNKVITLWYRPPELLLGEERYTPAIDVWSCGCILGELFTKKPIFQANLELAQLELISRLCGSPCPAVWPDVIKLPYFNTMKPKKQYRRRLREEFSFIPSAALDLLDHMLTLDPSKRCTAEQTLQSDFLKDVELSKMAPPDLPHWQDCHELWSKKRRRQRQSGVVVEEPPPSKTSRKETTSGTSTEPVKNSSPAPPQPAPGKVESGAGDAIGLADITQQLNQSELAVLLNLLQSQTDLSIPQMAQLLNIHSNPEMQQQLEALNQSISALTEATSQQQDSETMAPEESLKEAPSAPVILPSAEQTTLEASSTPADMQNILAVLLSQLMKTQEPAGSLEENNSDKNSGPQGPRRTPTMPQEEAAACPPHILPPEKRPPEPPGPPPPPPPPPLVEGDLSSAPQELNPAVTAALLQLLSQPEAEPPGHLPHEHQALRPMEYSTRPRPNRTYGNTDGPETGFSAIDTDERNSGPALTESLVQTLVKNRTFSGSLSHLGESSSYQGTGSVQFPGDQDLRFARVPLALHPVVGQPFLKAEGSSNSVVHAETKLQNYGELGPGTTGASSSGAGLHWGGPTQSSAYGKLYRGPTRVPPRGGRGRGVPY
# T2 sequence (Q9NYV4 whole entry): as the sequence (Q9NYV4 whole entry, the tested form may be a part) above
# T2 sequence (Q96SW2 whole entry): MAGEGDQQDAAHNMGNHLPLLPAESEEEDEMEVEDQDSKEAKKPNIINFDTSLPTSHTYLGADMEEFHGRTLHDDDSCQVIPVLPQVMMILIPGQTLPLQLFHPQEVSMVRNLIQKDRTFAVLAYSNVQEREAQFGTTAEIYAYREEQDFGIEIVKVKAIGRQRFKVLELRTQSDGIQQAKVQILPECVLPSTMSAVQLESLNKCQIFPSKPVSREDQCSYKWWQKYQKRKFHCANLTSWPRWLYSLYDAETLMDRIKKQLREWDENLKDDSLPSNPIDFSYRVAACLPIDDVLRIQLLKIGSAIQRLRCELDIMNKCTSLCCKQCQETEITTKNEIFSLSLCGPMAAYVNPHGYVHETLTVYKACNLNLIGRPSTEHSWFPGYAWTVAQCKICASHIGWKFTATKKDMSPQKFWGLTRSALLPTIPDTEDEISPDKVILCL
# T3 sequence (P50613 whole entry, the tested form may be a part): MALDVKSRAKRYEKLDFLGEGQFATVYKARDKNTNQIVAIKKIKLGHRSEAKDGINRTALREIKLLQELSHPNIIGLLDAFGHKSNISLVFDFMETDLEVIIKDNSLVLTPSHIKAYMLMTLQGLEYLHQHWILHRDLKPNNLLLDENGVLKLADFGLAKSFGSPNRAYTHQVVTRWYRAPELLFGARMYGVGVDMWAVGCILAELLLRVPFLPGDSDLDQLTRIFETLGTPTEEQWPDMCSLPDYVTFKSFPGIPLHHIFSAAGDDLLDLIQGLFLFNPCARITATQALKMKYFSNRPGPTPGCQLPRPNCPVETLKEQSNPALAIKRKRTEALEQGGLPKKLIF
# T1 sequence (P50750 whole entry): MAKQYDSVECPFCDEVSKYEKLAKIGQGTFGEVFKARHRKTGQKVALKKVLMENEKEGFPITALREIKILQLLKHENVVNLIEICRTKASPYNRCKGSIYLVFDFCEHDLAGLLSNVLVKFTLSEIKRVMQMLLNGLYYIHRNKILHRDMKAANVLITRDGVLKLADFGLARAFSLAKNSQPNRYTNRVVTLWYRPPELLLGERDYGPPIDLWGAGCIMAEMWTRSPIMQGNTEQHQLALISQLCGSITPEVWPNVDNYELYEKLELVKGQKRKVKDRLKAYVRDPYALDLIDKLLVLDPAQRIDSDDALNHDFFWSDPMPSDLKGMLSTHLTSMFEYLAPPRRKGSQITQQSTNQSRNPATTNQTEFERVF
# Sequence of Cyclin-dependent kinase 1 (P06493 whole entry): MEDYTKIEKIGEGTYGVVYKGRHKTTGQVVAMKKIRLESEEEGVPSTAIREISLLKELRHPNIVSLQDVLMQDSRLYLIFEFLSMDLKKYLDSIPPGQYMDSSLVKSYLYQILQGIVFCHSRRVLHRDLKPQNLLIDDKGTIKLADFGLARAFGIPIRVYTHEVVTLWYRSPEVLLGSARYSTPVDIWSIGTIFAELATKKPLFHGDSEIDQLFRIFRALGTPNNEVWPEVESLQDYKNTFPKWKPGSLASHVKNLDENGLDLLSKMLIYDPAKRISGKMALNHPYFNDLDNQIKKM
# Sequence of Cyclin-dependent kinase 12 (Mus musculus, UniProt Q14AX6) (Q14AX6 whole entry): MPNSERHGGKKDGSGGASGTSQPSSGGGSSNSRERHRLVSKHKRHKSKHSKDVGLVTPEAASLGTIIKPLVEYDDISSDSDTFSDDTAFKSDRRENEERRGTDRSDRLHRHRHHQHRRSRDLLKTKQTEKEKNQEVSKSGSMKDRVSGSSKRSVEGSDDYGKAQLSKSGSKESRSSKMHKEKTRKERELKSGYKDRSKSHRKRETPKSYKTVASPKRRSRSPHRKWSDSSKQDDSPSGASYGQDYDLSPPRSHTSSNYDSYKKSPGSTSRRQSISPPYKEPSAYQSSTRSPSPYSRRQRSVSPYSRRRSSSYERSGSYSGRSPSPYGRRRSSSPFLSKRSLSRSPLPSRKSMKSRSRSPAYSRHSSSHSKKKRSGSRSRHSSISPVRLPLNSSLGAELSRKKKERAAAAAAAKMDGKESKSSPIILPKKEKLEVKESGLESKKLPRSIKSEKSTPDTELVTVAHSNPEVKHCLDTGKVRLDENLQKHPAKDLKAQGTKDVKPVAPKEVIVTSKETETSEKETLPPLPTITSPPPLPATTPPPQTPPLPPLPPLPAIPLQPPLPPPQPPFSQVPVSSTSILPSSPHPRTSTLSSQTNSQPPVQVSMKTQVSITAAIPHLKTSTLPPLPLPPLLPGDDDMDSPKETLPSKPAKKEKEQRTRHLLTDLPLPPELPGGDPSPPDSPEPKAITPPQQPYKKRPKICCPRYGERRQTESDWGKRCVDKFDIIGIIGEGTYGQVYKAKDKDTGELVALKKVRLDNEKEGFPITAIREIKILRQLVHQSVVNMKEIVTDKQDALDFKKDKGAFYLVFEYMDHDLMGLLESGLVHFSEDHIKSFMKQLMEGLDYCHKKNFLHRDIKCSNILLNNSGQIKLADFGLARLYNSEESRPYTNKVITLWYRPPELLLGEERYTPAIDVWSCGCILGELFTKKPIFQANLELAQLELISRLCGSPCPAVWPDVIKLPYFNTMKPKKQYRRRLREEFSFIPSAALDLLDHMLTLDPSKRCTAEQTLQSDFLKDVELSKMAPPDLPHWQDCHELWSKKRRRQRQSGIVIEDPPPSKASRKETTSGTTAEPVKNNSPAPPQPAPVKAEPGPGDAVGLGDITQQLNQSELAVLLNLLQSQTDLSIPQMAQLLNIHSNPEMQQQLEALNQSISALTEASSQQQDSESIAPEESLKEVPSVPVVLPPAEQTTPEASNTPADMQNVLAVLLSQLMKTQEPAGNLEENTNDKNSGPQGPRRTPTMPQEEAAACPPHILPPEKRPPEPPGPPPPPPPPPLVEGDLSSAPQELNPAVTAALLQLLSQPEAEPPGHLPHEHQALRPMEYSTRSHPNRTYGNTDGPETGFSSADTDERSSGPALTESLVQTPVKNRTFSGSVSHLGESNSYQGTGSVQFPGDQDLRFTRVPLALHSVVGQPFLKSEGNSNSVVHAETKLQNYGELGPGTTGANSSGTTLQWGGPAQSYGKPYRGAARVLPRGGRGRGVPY
# Sequence of Cyclin-dependent kinase 6 (Q00534 whole entry): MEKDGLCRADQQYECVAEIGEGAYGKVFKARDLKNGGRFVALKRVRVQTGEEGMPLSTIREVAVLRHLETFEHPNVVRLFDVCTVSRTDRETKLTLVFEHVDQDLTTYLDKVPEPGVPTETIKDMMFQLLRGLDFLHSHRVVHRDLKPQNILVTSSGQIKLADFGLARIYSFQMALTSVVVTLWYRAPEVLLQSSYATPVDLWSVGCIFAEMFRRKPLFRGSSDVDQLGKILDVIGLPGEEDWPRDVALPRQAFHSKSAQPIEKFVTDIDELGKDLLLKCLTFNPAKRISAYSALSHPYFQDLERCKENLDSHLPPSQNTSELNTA
smiles,measurement,setting,value
CN(C)C/C=C/C(=O)Nc1ccc(C(=O)N2CCC[C@@H](Nc3ncc(Cl)c(-c4c[nH]c5ccccc45)n3)C2)cc1,IC50,[1],10500 nM
Clc1cnc(N[C@H]2CCCNC2)nc1-c1c[nH]c2ccccc12,IC50,[2],107 nM
CCn1cnc2c(NCc3nc4ccc(F)c(F)c4[nH]3)nc(N3CCCC[C@H]3CCO)nc21,IC50,[3],> 30000 nM
same,IC50,[4],14 nM
same,IC50,[5],28600 nM
Cn1cc(-n2cnc3c(NCc4nc5cc(Cl)c(Cl)cc5[nH]4)nc(N4CCOCC4)nc32)cn1,Kd,[6],> 10000 nM
same,Kd,[7],5100 nM
CC(C)n1cnc2c(NCc3nc4ccc(F)c(F)c4[nH]3)nc(N3CCCC[C@H]3CCO)nc21,IC50,[4],31 nM
C=CC(=O)Nc1cccc(Nc2nc(N3CCCC[C@H]3CCO)nc3c2ncn3CC)c1,IC50,[8],8 nM
same,IC50,Lung cancer cell line,8 nM
CCc1cnn2c(NCc3nc4ccc(F)c(F)c4[nH]3)cc(N3CCCC[C@H]3CCO)nc12,IC50,[3],21200 nM
same,IC50,[9],40 nM
same,IC50,[4],22 nM
same,IC50,[10],240 nM
same,IC50,[5],3410 nM
same,IC50,[11],47 nM
CC(C)S(=O)(=O)c1ccccc1Nc1nc(N[C@H]2CCCN(CCCCCCCNC(=O)COc3cccc4c3C(=O)N(C3CCC(=O)NC3=O)C4=O)C2)ncc1Cl (stereo partly drawn),IC50,[12],6 nM
O=C(COc1cccc2c1C(=O)N(C1CCC(=O)NC1=O)C2=O)NCCCCCCCN1CCC[C@H](Nc2ncc(Cl)c(-c3c[nH]c4ccccc34)n2)C1 (stereo partly drawn),IC50,[2],9 nM
O=C(CN1CCC[C@@H](Nc2ncc(Cl)c(-c3c[nH]c4ccccc34)n2)C1)Nc1ccc([As](O)O)cc1,EC50,[13],35 nM
CN(C)C/C=C/C(O)Nc1ccc(C(=O)Nc2cccc(Nc3ncc(Cl)c(-c4c[nH]c5ccccc45)n3)c2)cc1 (stereo not drawn),IC50,[14],628 nM
same,IC50,[15],238 nM
same,IC50,[16],893 nM
O=C(CN1CCC[C@@H](Nc2ncc(Cl)c(-c3c[nH]c4ccccc34)n2)C1)Nc1ccc([As]2SCCS2)cc1,EC50,[13],32 nM
